Experimental findings from the Biogen ADME set (Fang et al. 2023) are described below.

≈ marks a conversion by molar mass, not a printed value.

The conditions of this data set: for aqueous solubility: pH 6.8.

Molecule `Cc1cc(C)n(C(=O)CCCC(=O)n2nc(C)cc2C)n1` returned an intrinsic clearance, human liver microsomes of 609 mL/min/kg and an intrinsic clearance, rat liver microsomes of 2340 mL/min/kg.
For `O=C(Nc1cccc2ncccc12)[C@H]1CCCN(S(=O)(=O)c2ccc(F)cc2)C1`, in that order: 35.2 mL/min/kg and 698 mL/min/kg.
Turning to `COc1ccc(C(=O)c2ccccc2)c(Oc2nc3c(c(=O)n(C)c(=O)n3C)n2C)c1`, the MDR1-MDCK efflux ratio was found to be 1.83; the intrinsic clearance, human liver microsomes was 21.5 mL/min/kg; the intrinsic clearance, rat liver microsomes was found to be 1510 mL/min/kg; the aqueous solubility worked out at 49.3 µg/mL (≈ 117 µM).
In turn, `Cc1cc(C)nc(SCC(=O)N2c3ccccc3C(C)(c3ccccc3)CC2(C)C)n1` (configuration not stated) registered an intrinsic clearance, human liver microsomes of 2360 mL/min/kg and an intrinsic clearance, rat liver microsomes of 3130 mL/min/kg.
Consider `CCn1c(=O)oc2cc(NC(=O)c3ccc(C(C)(C)C)cc3)ccc21`, for which the MDR1-MDCK efflux ratio is 0.34; the fraction unbound, human plasma was found to be 0.0162; the fraction unbound, rat plasma came out at 0.0151.
On to `COc1cccc(C(=O)NCC(=O)Nc2cccc3c2CCCC3)c1`, for which the MDR1-MDCK efflux ratio worked out at 1.3; the intrinsic clearance, human liver microsomes came out at 57.9 mL/min/kg; the intrinsic clearance, rat liver microsomes stood at 607 mL/min/kg.
`COc1ccc(-c2nnc3nn(C)c(=O)n3c2-c2ccc(OC)cc2)cc1`: the MDR1-MDCK efflux ratio was 0.904 and the aqueous solubility stood at 0.25 µg/mL (≈ 0.688 µM).
For the molecule `CNc1cc(Nc2cccn(-c3ccccn3)c2=O)nn2c(C(=O)N[C@@H]3C[C@@H]3F)cnc12`, the MDR1-MDCK efflux ratio came to 31.1; the fraction unbound, human plasma was 0.098; the fraction unbound, rat plasma amounted to 0.033; the intrinsic clearance, human liver microsomes is not above 4.74 mL/min/kg. Besides, the intrinsic clearance, rat liver microsomes was determined as 24.7 mL/min/kg and the aqueous solubility worked out at 1.23 µg/mL (≈ 2.83 µM).
Take `COCCc1noc(CN2CC(c3ccccc3)(c3ccccc3)CCC2=O)n1`: the MDR1-MDCK efflux ratio is 2.43; the fraction unbound, human plasma was determined as 0.147; the fraction unbound, rat plasma came out at 0.179; the intrinsic clearance, human liver microsomes was found to be 211 mL/min/kg. In addition, the intrinsic clearance, rat liver microsomes amounted to 2010 mL/min/kg.
For the molecule `CC(=O)NCCCOc1ccc(CN2C[C@H](Oc3cccc(C)c3)[C@@H](O)C2)cc1`, the MDR1-MDCK efflux ratio was 31.2; the intrinsic clearance, human liver microsomes amounted to 12.1 mL/min/kg; the intrinsic clearance, rat liver microsomes was found to be 553 mL/min/kg; the aqueous solubility turned out to be 44.9 µg/mL (≈ 113 µM).
Take `CCC(C)(C)N1CCN(C(=O)Nc2cnn(CC(C)C)c2C(F)F)CC1`: the MDR1-MDCK efflux ratio was 4.08; the intrinsic clearance, human liver microsomes was not above 4.74 mL/min/kg; the intrinsic clearance, rat liver microsomes worked out at 159 mL/min/kg.
As to `C[C@@H]1Cc2ccccc2N1C(=O)Cn1nc(-c2cccc3ncccc23)oc1=O`, the MDR1-MDCK efflux ratio came to 0.843; the fraction unbound, human plasma amounted to 0.0168; the fraction unbound, rat plasma amounted to 0.0229; the intrinsic clearance, human liver microsomes came to 73.8 mL/min/kg. In addition, the intrinsic clearance, rat liver microsomes was 1080 mL/min/kg.
Molecule `COc1cc(CC(=O)Nc2ccccc2F)ccc1C` yielded an aqueous solubility of 26 µg/mL (≈ 95.1 µM).
In the case of `COc1ccc2nc3c(cc2c1)CNCCO3`, the MDR1-MDCK efflux ratio was found to be 0.504; the intrinsic clearance, human liver microsomes is 18.1 mL/min/kg; the intrinsic clearance, rat liver microsomes was 82.4 mL/min/kg.
Molecule `CS(=O)(=O)Cc1cc(-c2ccccc2)on1` registered an aqueous solubility of 31.3 µg/mL (≈ 132 µM).
In the case of `COc1ccc(Cc2ncnn2-c2ccc3c(c2)OCO3)c(OC)c1`, the MDR1-MDCK efflux ratio came out at 0.614; the intrinsic clearance, human liver microsomes was determined as 131 mL/min/kg; the intrinsic clearance, rat liver microsomes is 3040 mL/min/kg; the aqueous solubility was found to be 34.9 µg/mL (≈ 103 µM).
On the same counts, the results for `CON(C)C(=O)c1cc(C)ccc1NS(C)(=O)=O` are 1.52, not above 4.74 mL/min/kg, not above 10.7 mL/min/kg and 33.3 µg/mL (≈ 122 µM).
In the case of `Cn1c(SCOCc2ccccc2)nnc1C1CC1`, the MDR1-MDCK efflux ratio came to 0.57; the intrinsic clearance, human liver microsomes amounted to 27.1 mL/min/kg; the intrinsic clearance, rat liver microsomes stood at 271 mL/min/kg.
The molecule `CCN(Cc1nc2cc(Cl)ccc2c(=O)[nH]1)C(=O)COc1ccccc1Cc1ccccc1` yielded an intrinsic clearance, human liver microsomes of 225 mL/min/kg; an intrinsic clearance, rat liver microsomes of 1470 mL/min/kg; an aqueous solubility of 1.22 µg/mL (≈ 2.64 µM).
On to `CC(C)Oc1ccc(C#N)cc1NC1CCN(C)CC1`, for which the MDR1-MDCK efflux ratio is 2.51; the intrinsic clearance, human liver microsomes is not above 4.74 mL/min/kg; the intrinsic clearance, rat liver microsomes is 100 mL/min/kg.
As for `O=C(Nc1cnn(-c2ncccn2)c1)C1CCCCC1`, the intrinsic clearance, human liver microsomes is not above 4.74 mL/min/kg and the intrinsic clearance, rat liver microsomes worked out at 73.1 mL/min/kg.
Regarding `COc1c(C)cnc(Cn2cc(C#CCC(C)(C)O)c3c(Cl)nc(N)nc32)c1C`, the intrinsic clearance, human liver microsomes came to 58.2 mL/min/kg and the intrinsic clearance, rat liver microsomes was found to be 145 mL/min/kg.
`O=C(O)c1ccc(COc2ccc(/C=C3\SC(=O)N(Cc4ccc(F)cc4)C3=O)cc2)cc1` showed an aqueous solubility of 0.99 µg/mL (≈ 2.14 µM).
Take `N#Cc1ccc(CCC(=O)Nc2ccncc2)cc1`: the MDR1-MDCK efflux ratio was determined as 1.39; the intrinsic clearance, human liver microsomes was not above 4.74 mL/min/kg; the intrinsic clearance, rat liver microsomes worked out at 60.3 mL/min/kg; the aqueous solubility was 37.9 µg/mL (≈ 151 µM).
In the case of `CC1(C)Cc2cc(CN3CCC4(CC3)NC(=O)N(Cc3ccccc3)C4=O)ccc2O1`, the MDR1-MDCK efflux ratio was 7.73; the intrinsic clearance, human liver microsomes came to 55.8 mL/min/kg; the intrinsic clearance, rat liver microsomes came to 294 mL/min/kg; the aqueous solubility was found to be 36.4 µg/mL (≈ 86.6 µM).
Turning to `Cc1cc(C)n(-c2cccc(NC(=O)c3ccc(F)c(F)c3)c2)n1`, the MDR1-MDCK efflux ratio was 0.649; the intrinsic clearance, human liver microsomes amounted to 31.3 mL/min/kg; the intrinsic clearance, rat liver microsomes stood at 353 mL/min/kg; the aqueous solubility is 1.61 µg/mL (≈ 4.92 µM).
As to `Cc1ccc(S(=O)(=O)Nc2ccccc2-c2nc3ccccc3[nH]2)cc1`, the intrinsic clearance, human liver microsomes was determined as 122 mL/min/kg and the intrinsic clearance, rat liver microsomes was 541 mL/min/kg.
Consider `O=C1CNC(=O)N1CCCN1CCc2sccc2C1`, for which the MDR1-MDCK efflux ratio was found to be 1.52; the intrinsic clearance, human liver microsomes is not above 4.74 mL/min/kg; the intrinsic clearance, rat liver microsomes turned out to be 28.6 mL/min/kg; the aqueous solubility was 51.2 µg/mL (≈ 183 µM).
For `N=C(N)N/N=C/c1c(Cl)cccc1Cl`, the MDR1-MDCK efflux ratio amounted to 0.543; the intrinsic clearance, human liver microsomes is not above 4.74 mL/min/kg; the intrinsic clearance, rat liver microsomes stood at 77 mL/min/kg; the aqueous solubility was 50.3 µg/mL (≈ 218 µM).
Take `CCOC(=O)C1(Cc2cc(-c3cccc(F)c3)no2)CCN(Cc2ccccc2O)CC1`: the aqueous solubility is 0.68 µg/mL (≈ 1.55 µM).
`CN(C)C(=O)CCNc1ccnc2ccc(Cl)cc12` registered an intrinsic clearance, human liver microsomes of 6.56 mL/min/kg and an intrinsic clearance, rat liver microsomes of 73.1 mL/min/kg.
On the same counts, the results for `c1ccc(-c2nccc(NCc3nnc4n3CCCCC4)n2)cc1` are 78.9 mL/min/kg and 448 mL/min/kg.
As to `O=C(Nc1ccc(-c2nnn[nH]2)cc1)c1cc(COc2ccc(F)cc2)on1`, the aqueous solubility amounted to 16.4 µg/mL (≈ 43 µM).
With `CS(=O)(=O)NCc1cc2n(n1)CCN(C1Cc3ccccc3C1)C2`, the MDR1-MDCK efflux ratio stood at 2.92; the intrinsic clearance, human liver microsomes is not above 4.74 mL/min/kg; the intrinsic clearance, rat liver microsomes is 27.7 mL/min/kg.
With `CCC(=O)NCCNC(=O)c1cc(-c2ccccc2)nc2ccccc12`, the MDR1-MDCK efflux ratio amounted to 15.1; the intrinsic clearance, human liver microsomes is 13.3 mL/min/kg; the intrinsic clearance, rat liver microsomes was 80.3 mL/min/kg; the aqueous solubility came to 18.7 µg/mL (≈ 53.8 µM).
Regarding `N#Cc1ccnc(Nc2cc(C3CCN(C4COC4)CC3)cc(N3CCC(F)(F)C3)n2)c1`, the MDR1-MDCK efflux ratio stood at 1.85 and the aqueous solubility turned out to be 0.71 µg/mL (≈ 1.61 µM).
For the molecule `CN(CC(=O)NC1CC1)C(=O)C1C2CC3CC(C2)CC1C3` (configuration not stated), the MDR1-MDCK efflux ratio came to 1.58; the intrinsic clearance, human liver microsomes was found to be 21.7 mL/min/kg; the intrinsic clearance, rat liver microsomes amounted to 463 mL/min/kg; the aqueous solubility was found to be 50.8 µg/mL (≈ 175 µM).
In the case of `CC(C)Nc1ccc(-c2cc3c(cc2CO)OCCO3)cn1`, the MDR1-MDCK efflux ratio is 0.775; the intrinsic clearance, human liver microsomes came out at 13.7 mL/min/kg; the intrinsic clearance, rat liver microsomes was 5720 mL/min/kg.
As to `CN(C)CCN(Cc1ccccc1)Cc1ccccc1O`, the MDR1-MDCK efflux ratio was 0.84; the intrinsic clearance, human liver microsomes came to 330 mL/min/kg; the intrinsic clearance, rat liver microsomes was 1380 mL/min/kg; the aqueous solubility came to 41.9 µg/mL (≈ 147 µM).
With `COc1cc2c(NC3CCN(C(C)C)CC3)nc(N3CCC(F)(F)CC3)nc2cc1OCCCN1CCCC1`, the intrinsic clearance, human liver microsomes was not above 4.74 mL/min/kg; the intrinsic clearance, rat liver microsomes came out at 26.3 mL/min/kg; the aqueous solubility came to 64.8 µg/mL (≈ 119 µM).
As to `Cc1ccccc1CSc1ccc(-c2ccccn2)nn1`, the MDR1-MDCK efflux ratio worked out at 0.589; the intrinsic clearance, human liver microsomes amounted to 95.6 mL/min/kg; the intrinsic clearance, rat liver microsomes was 537 mL/min/kg; the aqueous solubility was found to be 1.75 µg/mL (≈ 5.96 µM).
On the same counts, the results for `Cc1ccc(-c2nnc([C@H]3CCN(Cc4cc5ccccc5o4)C3)o2)cc1` are 0.679, 49.2 mL/min/kg, 663 mL/min/kg and 15.9 µg/mL (≈ 44.2 µM).
In the case of `O=C(Nc1nc2ccccc2[nH]1)c1ccncc1`, the MDR1-MDCK efflux ratio was 1.24; the intrinsic clearance, human liver microsomes was not above 4.74 mL/min/kg; the intrinsic clearance, rat liver microsomes worked out at 109 mL/min/kg; the aqueous solubility was determined as 5.09 µg/mL (≈ 21.4 µM).
For the molecule `CC1CC1C(=O)N1CCC(n2c(=O)[nH]c3ccccc32)CC1` (configuration not stated), the intrinsic clearance, human liver microsomes is not above 4.74 mL/min/kg; the intrinsic clearance, rat liver microsomes is 162 mL/min/kg; the aqueous solubility worked out at 32.2 µg/mL (≈ 108 µM).
`COc1cc(-c2cn(C3CCc4c(F)cccc4N(CC(F)(F)F)C3=O)nn2)ccc1-n1cnc(C)c1` (configuration not stated) showed an intrinsic clearance, human liver microsomes of 26.1 mL/min/kg and an intrinsic clearance, rat liver microsomes of 49.2 mL/min/kg.
Consider `COc1ccc(Nc2nc(N)nc(CN3CCN(Cc4ccccc4)CC3)n2)cc1`, for which the MDR1-MDCK efflux ratio came out at 10.9; the intrinsic clearance, human liver microsomes came to 25 mL/min/kg; the intrinsic clearance, rat liver microsomes was found to be 594 mL/min/kg; the aqueous solubility is 65.1 µg/mL (≈ 161 µM).
Consider `CCOc1ccnc(NCCCc2nc3cc(F)ccc3[nH]2)n1`, for which the MDR1-MDCK efflux ratio was 3.15; the intrinsic clearance, human liver microsomes was 237 mL/min/kg; the intrinsic clearance, rat liver microsomes was found to be 3280 mL/min/kg.
Take `CC1(C)CN(C(=O)c2cncc(Br)c2)CCO1`: the MDR1-MDCK efflux ratio came out at 0.783; the intrinsic clearance, human liver microsomes is not above 4.74 mL/min/kg; the intrinsic clearance, rat liver microsomes was not above 10.7 mL/min/kg; the aqueous solubility was determined as 83.3 µg/mL (≈ 278 µM).
